{"source": "patent US20240196899A1", "about": "“PESTICIDAL MIXTURES” (priority 2021, published 2024)", "key": {"[1]": {"tested_on": "Spodoptera littoralis larvae", "test": "Larval weight gain (LWG) of S. littoralis on treated castor bean leaves", "type": "in vivo", "conditions": "Table 3", "description": "(§1) The experiments were conducted by applying commercially available compositions of Novaluron (Rimon®) and methoxyfenozide (Runner®) alone or together. The compositions were diluted with water to the stated concentration of the active compound.\n(§2) The following active ingredients and their mixtures were evaluated: • Novaluron: 0.01 mg a.i./liter • Methoxyfenozide: 0.01 mg a.i./liter • Novaluron+Methoxyfenozide 0.01 mg a.i./liter+0.01 mg a.i./liter\n(§3) To evaluate the insecticidal control of novaluron and methoxyfenozide alone and in a binary mixture, castor bean leaves were treated with the above listed treatments. The treated leaves were exposed for 4-day feeding to 3rd-instar Spodoptera littoralis and the larvae were exposed for additional 4 days on untreated leaves. Larval mortality was determined at day 4 and 8. The treatments were composed of 3-5 replicates of 10 larvae each.\nLarval weight gain (LWG) was also measured in order to determine the effectiveness of the mixture of novaluron and methoxyfenozide when compared to the solo application of novaluron and methoxyfenozide.\nTable 3 below summarizes the larval weight gain (LWG) (compared to the control), that was determined 4 days after treatment for the mixture of novaluron and methoxyfenozide."}, "M. persicae": {"tested_on": "M. persicae", "test": "Insecticidal % control against M. persicae, Colby synergy", "type": "in vivo, Myzus persicae", "description": "(§4) Colby's method is used to determine if synergy exists for a combination of active ingredients. According to Colby, the expected action (E) of active ingredients A+B is:\n(§5) [formula] • where E=expected efficacy, A and B=the efficacy of two active ingredients A and B at a given dose.\n(§6) When the percentage of control observed (O) for the combination is greater than the expected (E) percentage, there is a synergistic effect. The synergism ratio (R) is calculated as the ratio between the […].\n(§7) The insecticidal compounds A (Novaluron) and B (mix partner) are formulated as equivalent suspension concentrates to eliminate the effects of differing formulation inerts on biological activity. Efficacy of the insecticidal compositions is evaluated with reference to a scale of 0% to 100% in comparison with untreated control plots. 0 means no damage and 100 means complete destruction of the harmful pests.\n(§8) Likewise following experimentations were done on other mixtures of novaluron on various pests, the result of which are summarized in the below tables: […]"}, "[2]": {"tested_on": "Spodoptera littoralis larvae", "test": "Larval mortality of S. littoralis fed on treated castor bean leaves (tank mix novaluron + methoxyfenozide), Colby synergy", "type": "in vivo", "conditions": "Table 1, 0.01 mg a.i./L of each active", "description": "as §4, §5, §6\nA representative experiment was conducted to evaluate the insecticidal control of novaluron, a compound II, namely methoxyfenozide as well as a mixture of novaluron and methoxyfenozide against Spodoptera littoralis larvae.\nas §1, §2, §3"}, "B. tabaci": {"tested_on": "B. tabaci", "test": "Insecticidal % control against B. tabaci, Colby synergy", "type": "in vivo, Bemisia tabaci", "conditions": "Table 7, 72 hours after treatment", "description": "as §4, §5, §6, §7, §8"}, "S. frugiperda": {"tested_on": "S. frugiperda", "test": "Insecticidal % control against S. frugiperda, Colby synergy", "type": "in vivo, Spodoptera frugiperda", "conditions": "120 hours after treatment", "description": "as §4, §5, §6, §7, §8"}, "[3]": {"tested_on": "Cotton Leafworm, S. littoralis", "test": "Insecticidal % control against Cotton Leafworm, S. littoralis, Colby synergy", "type": "in vivo, Spodoptera littoralis", "conditions": "72 hours after treatment", "description": "as §4, §5, §6, §7, §8"}, "F. occidentalis": {"tested_on": "F. occidentalis", "test": "Insecticidal % control against F. occidentalis, Colby synergy", "type": "in vivo, Frankliniella occidentalis", "description": "as §4, §5, §6, §7, §8"}, "T. urticae": {"tested_on": "T. urticae", "test": "Insecticidal % control against T. urticae, Colby synergy", "type": "in vivo, Tetranychus urticae", "description": "as §4, §5, §6, §7, §8"}, "H. halys": {"tested_on": "H. halys", "test": "Insecticidal % control against H. halys, Colby synergy", "type": "in vivo, Halyomorpha halys", "conditions": "Table 20 B; 144 hours after treatment; 50 ppm", "description": "as §4, §5, §6, §7, §8"}, "A. gossypii": {"tested_on": "A. gossypii", "test": "Insecticidal % control against A. gossypii, Colby synergy", "type": "in vivo, Aphis gossypii", "conditions": "96 hours after treatment", "description": "as §4, §5, §6, §7, §8"}, "T. absoluta": {"tested_on": "T. absoluta", "test": "Insecticidal % control against T. absoluta, Colby synergy", "type": "in vivo, Tuta absoluta", "conditions": "72 hours after treatment", "description": "as §4, §5, §6, §7, §8"}}, "data": [{"smiles": "O=C(NC(=O)c1c(F)cccc1F)Nc1ccc(OC(F)(F)C(F)OC(F)(F)F)c(Cl)c1", "note": "(single isomer, unassigned; (+)) [Novaluron, (+)-I-[3-chloro-4-(1,1,2-trifluoro-2-trifluoromethoxyethoxy)phenyl]-3-(2,6-difluorobenzoyl) urea]", "values": [{"measurement": "LWG % rel. Control", "setting": "[1]; 4 days after treatment, 0.01 mg a.i./L of each active", "result": 108, "unit": "% rel. Control"}, {"measurement": "effect on the weight gain of the Spodoptera littoralis larvae", "setting": "[1]; applied alone", "result": "neither novaluron nor methoxyfenozide alone have any effect on the weight gain"}, {"measurement": "Observed % control (O)", "setting": "M. persicae; Table 6 A, 72 hours after treatment, 1 ppm", "result": 34, "unit": "%"}, {"measurement": "Observed % control (O)", "setting": "M. persicae; Table 6 B, 7 days after treatment, 1 ppm", "result": 38.8, "unit": "%"}, {"measurement": "Observed % control (O)", "setting": "M. persicae; Table 15 A, 48 hours after treatment, 50 ppm", "result": 14, "unit": "%"}, {"measurement": "Observed % control (O)", "setting": "M. persicae; Table 15 B, 72 hours after treatment, 0.5 ppm", "result": 30, "unit": "%"}, {"measurement": "Observed % control (O)", "setting": "M. persicae; Table 15 B, 72 hours after treatment, 50 ppm", "result": 44, "unit": "%"}, {"measurement": "Observed % control (O)", "setting": "M. persicae; Table 17 A, 72 hours after treatment, 0.2 ppm", "result": 56, "unit": "%"}, {"measurement": "Observed % control (O)", "setting": "M. persicae; Table 17 B, 7 days after treatment, 0.2 ppm", "result": 62.5, "unit": "%"}, {"measurement": "Observed % control (O)", "setting": "M. persicae; Table 19 B, 7 days after treatment, 500 ppm", "result": 72.9, "unit": "%"}, {"measurement": "Larval mortality, % (observed) 4 d", "setting": "[2]; 3rd-instar larvae, 4-day feeding on treated leaves, day 4", "result": 3.5, "unit": "%"}, {"measurement": "Larval mortality, % (observed) 8 d", "setting": "[2]; 4 days on treated then 4 days on untreated leaves, day 8", "result": 20, "unit": "%"}, {"measurement": "Observed % control (O)", "setting": "B. tabaci; 7 ppm", "result": 23.1, "unit": "%"}, {"measurement": "Observed % control (O)", "setting": "B. tabaci; 35 ppm", "result": 25.2, "unit": "%"}, {"measurement": "Observed % control (O)", "setting": "S. frugiperda; Table 5 A, 0.01 ppm", "result": 27, "unit": "%"}, {"measurement": "Observed % control (O)", "setting": "S. frugiperda; Table 5 A, 0.05 ppm", "result": 40, "unit": "%"}, {"measurement": "Observed % control (O)", "setting": "S. frugiperda; Table 9, 0.01 ppm", "result": 27, "unit": "%"}, {"measurement": "Observed % control (O)", "setting": "S. frugiperda; Table 9, 0.025 ppm", "result": 30, "unit": "%"}, {"measurement": "Observed % control (O)", "setting": "S. frugiperda; Table 10 A, 0.025 ppm", "result": 30, "unit": "%"}, {"measurement": "Observed % control (O)", "setting": "[3]; Table 5 B, 0.02 ppm", "result": 0, "unit": "%"}, {"measurement": "Observed % control (O)", "setting": "[3]; Table 8, 12 ppm", "result": 75, "unit": "%"}, {"measurement": "Observed % control (O)", "setting": "[3]; Table 10 B, 0.02 ppm", "result": 30, "unit": "%"}, {"measurement": "Observed % control (O)", "setting": "[3]; Table 11, 12 ppm", "result": 25, "unit": "%"}, {"measurement": "Observed % control (O)", "setting": "[3]; Table 12, 12 ppm", "result": 75, "unit": "%"}, {"measurement": "Observed % control (O)", "setting": "[3]; Table 13, 12 ppm", "result": 75, "unit": "%"}, {"measurement": "Observed % control (O)", "setting": "[3]; Table 16, 0.04 ppm", "result": 73, "unit": "%"}, {"measurement": "Observed % control (O)", "setting": "[3]; Table 20 A, 0.02 ppm", "result": 0, "unit": "%"}, {"measurement": "Observed % control (O)", "setting": "[3]; Table 20 A, 0.2 ppm", "result": 5, "unit": "%"}, {"measurement": "Observed % control (O)", "setting": "[3]; Table 21, 12 ppm", "result": 12.5, "unit": "%"}, {"measurement": "Observed % control (O)", "setting": "F. occidentalis; Table 4 A, 48 hours after treatment, 5.3 ppm", "result": 14.0, "unit": "%"}, {"measurement": "Observed % control (O)", "setting": "F. occidentalis; Table 4 B, 72 hours after treatment, 5.3 ppm", "result": 20.0, "unit": "%"}, {"measurement": "Observed % control (O)", "setting": "F. occidentalis; Table 4 C, 7 days after treatment, 5.3 ppm", "result": 40.0, "unit": "%"}, {"measurement": "Observed % control (O)", "setting": "F. occidentalis; Table 5 D, 48 hours after treatment, 3.5 ppm", "result": 4.0, "unit": "%"}, {"measurement": "Observed % control (O)", "setting": "F. occidentalis; Table 5 E, 72 hours after treatment, 3.5 ppm", "result": 4.0, "unit": "%"}, {"measurement": "Observed % control (O)", "setting": "F. occidentalis; Table 5 F, 7 days after treatment, 3.5 ppm", "result": 8.0, "unit": "%"}, {"measurement": "Observed % control (O)", "setting": "F. occidentalis; Table 18 B, 72 hours after treatment, 5 ppm", "result": 10.0, "unit": "%"}, {"measurement": "Observed % control (O)", "setting": "F. occidentalis; Table 18 B, 72 hours after treatment, 500 ppm", "result": 10.0, "unit": "%"}, {"measurement": "Observed % control (O)", "setting": "F. occidentalis; Table 20 C, 48 hours after treatment, 1 ppm", "result": 16.0, "unit": "%"}, {"measurement": "Observed % control (O)", "setting": "F. occidentalis; Table 20 D, 72 hours after treatment, 1 ppm", "result": 50.0, "unit": "%"}, {"measurement": "Observed % control (O)", "setting": "F. occidentalis; Table 20 D, 72 hours after treatment, 100 ppm", "result": 50.0, "unit": "%"}, {"measurement": "Observed % control (O)", "setting": "F. occidentalis; Table 20 E, 7 days after treatment, 1 ppm", "result": 74.0, "unit": "%"}, {"measurement": "Observed % control (O)", "setting": "F. occidentalis; Table 20 E, 7 days after treatment, 100 ppm", "result": 84.0, "unit": "%"}, {"measurement": "Observed % control (O)", "setting": "T. urticae; Table 6 C, 48 hours after treatment, 6 ppm", "result": 0, "unit": "%"}, {"measurement": "Observed % control (O)", "setting": "T. urticae; Table 6 D, 72 hours after treatment, 6 ppm", "result": 0, "unit": "%"}, {"measurement": "Observed % control (O)", "setting": "T. urticae; Table 6 E, 7 days after treatment, 6 ppm", "result": 6.1, "unit": "%"}, {"measurement": "Observed % control (O)", "setting": "T. urticae; Table 14 A, 48 hours after treatment, 2.4 ppm", "result": 12, "unit": "%"}, {"measurement": "Observed % control (O)", "setting": "T. urticae; Table 14 A, 48 hours after treatment, 120 ppm", "result": 8, "unit": "%"}, {"measurement": "Observed % control (O)", "setting": "T. urticae; Table 14 B, 72 hours after treatment, 2.4 ppm", "result": 13, "unit": "%"}, {"measurement": "Observed % control (O)", "setting": "T. urticae; Table 14 B, 72 hours after treatment, 120 ppm", "result": 10, "unit": "%"}, {"measurement": "Observed % control (O)", "setting": "T. urticae; Table 14 C, 7 days after treatment, 2.4 ppm", "result": 15, "unit": "%"}, {"measurement": "Observed % control (O)", "setting": "T. urticae; Table 14 C, 7 days after treatment, 120 ppm", "result": 17, "unit": "%"}, {"measurement": "Observed % control (O)", "setting": "H. halys", "result": 12.5, "unit": "%"}, {"measurement": "Observed % control (O)", "setting": "A. gossypii; Table 18 A, 10 ppm", "result": 16.2, "unit": "%"}, {"measurement": "Observed % control (O)", "setting": "A. gossypii; Table 19 A, 100 ppm", "result": 16.5, "unit": "%"}, {"measurement": "Observed % control (O)", "setting": "T. absoluta; Table 2, 300 ppm", "result": 0, "unit": "%"}, {"measurement": "Observed % control (O)", "setting": "T. absoluta; Table 5 C, 0.1 ppm", "result": 16.7, "unit": "%"}, {"measurement": "Observed % control (O)", "setting": "T. absoluta; Table 5 C, 1 ppm", "result": 16.7, "unit": "%"}, {"measurement": "Observed % control (O)", "setting": "T. absoluta; Table 5 C, 300 ppm", "result": 16.7, "unit": "%"}]}]}
